The source of these data is patent US12358918B2, “Aryl hydrocarbon receptor (AHR) activator compounds as cancer therapeutics” (THE BROAD INSTITUTE, INC., priority 2018, dated 2025).

SMILES strings stand for the structures. Where two headings read alike, the source gives them in different places.

In data set [1] the test system is MDA-MB-231 breast cancer cell lines. Briefly: cytotoxicity, control cells vs cells overexpressing CYP1A1. The format is cell-based. The text has this:
The dependence of each compound's cytotoxic effects upon CYP1A1 was also examined, via screening of MDA-MB-231 breast cancer cell lines for cytotoxic response. The CYP1A1-dependence of the cytotoxic response of to each tested compound was specifically determined by comparing the cytotoxicity of each compound administered to control cells with that of the compound administered to corresponding cells that overexpressed CYP1A1. […]

Data set [2] concerns Twelve different breast cancer cell lines. Kind of data set: adenosine receptor antagonists and agonists dosed on twelve breast cancer cell lines. The format is cell-based. As to conditions: 32 adenosine receptor antagonists/agonists compared; FIG. 6B.
In data set [3] the test system is 578 cancer cell lines. Briefly: PRISM multiplexed cellular viability screening. The format is cell-based. As to conditions: relation to FOXA1 / FOXA1 target expression across cell lines. As to the method: The instant discovery was made using large-scale multiplex profiling of existing drugs against 578 cancer cell lines, employing a PRISM multiplexed cellular viability assay.
Parental cell lines were obtained from the Cancer Cell Line Encyclopedia (CCLE) project (1). PRISM cell line barcoding, pooling, and screening was performed as previously described with several improvements to the original method (2). First, the lentiviral vector was modified to encode the unique barcode identifier at the end of the puromycin resistance gene. This enables barcodes to be detected using a variant of the mRNA capture and Luminex detection method developed for the L1000 gene expression assay (3). Second, a set of ten inert barcodes were spiked-in to each well of each plate after cell lysis to control for variation in PCR amplification as detailed below.
Luminex technology produced .Ixb files containing data for each Luminex bead observed during detection. These .Ixb files were processed to compute Median Fluorescence Intensity (MFI) values, calculated as the median of the values obtained for all beads corresponding to a single PRISM barcode.
MFI values were log-transformed (log MFI) and used to perform basic quality control. To detect probable screening artifacts, log MFI values were centered to the median log MFI for each cell line on each plate in order to put the measurements from each cell line on the same scale. For each well on each plate, the median of these centered values was then standardized according to the global median and global MAD across all plate wells in the same position. Data from wells with a standardized score of greater than 5 or less than −5 were excluded from all further processing steps.
For each cell line on each plate, the distribution of MFI values observed for the DMSO-treated negative controls was compared to that of the positive controls using a robust form of the Strictly Standardized Mean Difference (SSMD*)′. Specifically, SSMD* was calculated as: […]
Data corresponding to SSMD values less than 2 were removed before calculating cell viability.
The data in the instant disclosure were produced according to two different screening protocols. In the PR500 protocol, ten inert barcodes were spiked-in to each well of each plate after cell lysis. For data produced using the PR500 protocol, normalized MFI (nMFI) values were computed by taking the ratio of each MFI value against the median of the inert barcodes within each well. […]
Cell viability was calculated as the ratio of nMFI to the median of the nMFI from the DMSO-treated negative controls for each cell line on each plate. […] The final viability values were calculated as the median of the batch-corrected cell viabilities from biological replicates for each cell line, compound and dose. […]

In data set [4] the test system is MDA-MB-468 and ZR51 breast cancer and JHH7 liver cancer cell lines.
Data set [5] addresses T1, A3 receptors (Homo sapiens, UniProt P0DMS8).
T1 sequence (P0DMS8 1-318): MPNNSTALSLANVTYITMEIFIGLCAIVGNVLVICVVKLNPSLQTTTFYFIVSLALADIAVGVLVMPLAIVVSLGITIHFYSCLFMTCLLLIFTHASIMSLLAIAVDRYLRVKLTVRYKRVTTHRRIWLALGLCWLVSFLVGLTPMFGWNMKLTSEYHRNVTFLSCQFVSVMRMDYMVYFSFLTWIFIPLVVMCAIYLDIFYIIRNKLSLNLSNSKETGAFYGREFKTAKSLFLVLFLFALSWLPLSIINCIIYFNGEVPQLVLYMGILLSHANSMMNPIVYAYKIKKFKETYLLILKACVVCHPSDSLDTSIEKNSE
As to conditions: previously characterized; cited from earlier work.

For data set [6], the target named is recombinant human Adenosine A2A (FAST-002C) receptor (Homo sapiens, UniProt P29274). Kind of data set: cAMP HTRF assay, Adenosine A2A receptor, antagonist mode. In kind it is cell-based. Background: Time-resolved FRET reads energy transfer from a long-lived donor to a nearby acceptor.
recombinant human Adenosine A2A (FAST-002C) receptor, sequence (P29274 whole entry): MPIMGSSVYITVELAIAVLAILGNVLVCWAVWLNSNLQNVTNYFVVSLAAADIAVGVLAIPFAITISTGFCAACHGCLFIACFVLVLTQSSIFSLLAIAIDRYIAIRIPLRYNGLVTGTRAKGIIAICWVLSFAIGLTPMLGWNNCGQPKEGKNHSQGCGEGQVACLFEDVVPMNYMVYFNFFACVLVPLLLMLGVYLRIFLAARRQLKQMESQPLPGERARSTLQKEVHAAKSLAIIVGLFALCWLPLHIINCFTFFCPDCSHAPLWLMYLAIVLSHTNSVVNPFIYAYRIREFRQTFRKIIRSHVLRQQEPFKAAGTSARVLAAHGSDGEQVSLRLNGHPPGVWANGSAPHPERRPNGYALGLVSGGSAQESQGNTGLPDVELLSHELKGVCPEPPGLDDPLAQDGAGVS
The target of data set [7] is T2, recombinant human Adenosine A3 (FAST-004C) receptor (Homo sapiens, UniProt P0DMS8).
T2 sequence (P0DMS8 1-318): T1 sequence (P0DMS8 1-318)
Kind of data set: cAMP HTRF assay, Adenosine A3 receptor, antagonist mode. In kind it is cell-based.

Data set [8] has as its target T3, recombinant human Adenosine A1 (FAST-001C) receptor (Homo sapiens, UniProt P30542).
T3 sequence (P30542 1-326): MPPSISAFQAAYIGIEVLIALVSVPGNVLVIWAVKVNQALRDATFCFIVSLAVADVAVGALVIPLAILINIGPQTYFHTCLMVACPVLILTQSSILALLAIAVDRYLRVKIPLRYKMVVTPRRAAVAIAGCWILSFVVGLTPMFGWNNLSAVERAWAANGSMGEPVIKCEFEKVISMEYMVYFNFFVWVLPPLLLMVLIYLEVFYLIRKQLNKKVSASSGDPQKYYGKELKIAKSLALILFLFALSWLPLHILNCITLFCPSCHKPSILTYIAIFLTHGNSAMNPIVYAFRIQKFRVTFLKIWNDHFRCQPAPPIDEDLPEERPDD
Kind of data set: cAMP HTRF assay, Adenosine A1 receptor, antagonist mode. As to conditions: for inhibition: CHO-K1, read-out: % Inhibition Average at maximal concentration; for Hill Coefficient: antagonist mode dose-response fit. Set-up: inhibition: dose or concentration left out as unconfirmed.

Data set [9] addresses T4, recombinant human Adenosine A2B (FAST-003C) receptor (Homo sapiens, UniProt P29275).
T4 sequence (P29275 1-332): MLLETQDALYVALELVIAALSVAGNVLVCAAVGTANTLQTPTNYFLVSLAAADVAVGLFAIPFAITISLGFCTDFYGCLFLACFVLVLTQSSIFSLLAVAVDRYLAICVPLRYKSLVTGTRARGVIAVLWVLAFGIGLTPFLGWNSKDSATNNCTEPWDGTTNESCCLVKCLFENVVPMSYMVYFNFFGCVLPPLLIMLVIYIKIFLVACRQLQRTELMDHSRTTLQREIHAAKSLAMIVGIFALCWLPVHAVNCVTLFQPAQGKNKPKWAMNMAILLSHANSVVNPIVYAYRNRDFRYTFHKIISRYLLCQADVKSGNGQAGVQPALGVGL
Briefly: cAMP HTRF assay, Adenosine A2B receptor, antagonist mode. As to conditions: for inhibition: HEK293, read-out: % Inhibition Average at maximal concentration; for Hill Coefficient: antagonist mode dose-response fit. Set-up: inhibition: dose or concentration left out as unconfirmed.

For data set [10], the system named is MDA-MB-468 breast cancer cells. Briefly: Western immunoblot of treated cells over 24 hours. In kind it is cell-based. As to conditions: FIG. 18; for CYP1A1 expression / FOXA1 levels: 24 hour time course; for DNA double stranded breaks (pH2A.X) and PARP cleavage: within 24 hours. How it is done:
Adherent cells were washed once with cold 1×PBS (Corning #01018002) and lysed with RIPA buffer (Sigma #R0278) supplemented by protease and phosphatase inhibitors (Sigma). Protein content was quantified using the DC Protein Assay (BioRad #5000111). Samples were reduced with (loading buffer) and boiled at 95° C. before being resolved by SDS gel electrophoresis on 4-20% Tris/glycine gels (Invitrogen). Proteins were transferred using the IBlot2 (Thermo #IB21001) onto the iBlot™ 2 nitrocellulose Transfer Stacks (Thermo #IB23001). The membranes were then blocked in Odyssey Blocking Buffer (Li-COR #927-40000) for one hour, and then probed overnight with primary antibodies diluted in blocking buffer. The following day, membranes were washed 3×5 mins with 1×TBST and then probed with LiCOR Infrared secondary antibodies for 1 hour at room temperature. Membranes were washed an additional 3×5 mins in 1×TBST and then imaged using the LiCOR Imager. […]
(In general: Immunoblotting shows a protein as a band on a membrane.)

The subject of data set [11] is MDA-MB-468 breast cancer cells possessing AHR knockout. Kind of data set: dose response in AHR knockout (AHR_sg3) cells. The format is cell-based. As to conditions: FIG. 17. From the text:
Biological replicates were averaged and normalized to vehicle control. Dose curves were generated using Graphpad Prism.

Setting [12] is: HEK293; read-out: % Inhibition Average at maximal concentration.
[13] abbreviates: CHO-K1; read-out: % Inhibition Average at maximal concentration.
Where [14] appears, read: antagonist mode dose-response fit.
[15] abbreviates: antagonist mode; HEK293; reference agonist NECA.
The mark [16] stands for this setting: HEK293, read-out: % Inhibition Average at maximal concentration.

A word on the Ki: it is a measure of affinity in units of concentration, obtained from inhibition or displacement. On to `Nc1nc2c(cnn2CCc2ccccc2)c2nc(-c3ccco3)nn12` [SCH-58261], for which the “CYP1A1-dependence of the cytotoxic response” value (shortened to “CYP1A1-dependence”) in [1] was “CYP1A1-dependent cytotoxic”. In [2], the “cytotoxicity to breast cancer cell lines” value is listed as “cytotoxic”. The “cell killing profile in PRISM” value in data set [3] is on record as “cell killing profile specific for such FOXA1-dependent cancer cell lines”. The “AHR-dependence of the cytotoxic response” value in [4] was “dependence upon AHR”. Also, the Ki in data set [5] is more than 10000 nM.

Broadly, the IC50 is the midpoint of a concentration-inhibition curve. Turning to `Clc1ccc2ncn3nc(-c4ccco4)nc3c2c1` [BRO-022, 9-chloro-2-(furan-2-yl)-[1,2,4]triazolo[1,5-c]quinazoline], the inhibition at 10 µM in [6] (setting [12]) was found to be 60.7%. For the same compound, in data set [7] (setting [13]), the inhibition at 10 µM came out at 29.5%. Also, in [8], the IC50 is 170 nM, the inhibition stood at 101% and the “Hill Coefficient” value is on record as 1.06. For the same compound, in data set [9], the IC50 worked out at 2500 nM, the inhibition turned out to be 97.8% and the “Hill Coefficient” value amounted to 1.39.

Consider `C=C1Nc2ccccc2-c2nc(-c3ccco3)nn21`, for which the inhibition at 10 µM in data set [6] (setting [12]) came to 99.2%; in data set [7] (setting [13]), 31%. Further, the “Hill Coefficient” value in data set [6] (setting [14]) is given as 1.72; in data set [8] it was 1.17; in data set [9], 1.80. The values for the IC50 in data set [6] (setting [15]), in [8] and in data set [9] were 1330 nM, 493 nM and 2140 nM, respectively. For the same compound, the “CYP1A1-dependence” value in data set [1] is listed as “CYP1A1-dependent cytotoxic”. Moreover, in [4], the “AHR-dependence of the cytotoxic response” value is reported as “dependence upon AHR”. Also, the inhibition in data set [8] is 96.1%; in data set [9] it was 109%.

In the case of `Cc1ccc(-c2nc3c4cc(Cl)ccc4nc(N)n3n2)o1` [BRO-013], the inhibition at 10 µM came to 112% in data set [6] (setting [16]) and 74.2% in data set [7] (setting [13]). In addition, the “Hill Coefficient” value in [6] (setting [14]) was 1.39; in data set [7] (setting [14]), 1.04; in [8], 1.18; in data set [9] it was 1.76. Besides, the IC50 in data set [6] (setting [15]) was 27.2 nM; in data set [7] (antagonist mode; CHO-K1; reference agonist IB-MECA), 730 nM; in data set [8] it was 7.94 nM; in [9] it was 116 nM. Also, the “CYP1A1-dependence” value in [1] was “CYP1A1-dependent cytotoxic”. Moreover, the “AHR-dependence of the cytotoxic response” value in data set [4] was “dependence upon AHR”. In addition, the inhibition in data set [8] is 107%; in data set [9], 110%.

As for `CN(C)c1nc2ccc(Cl)cc2c2nc(-c3ccco3)nn12` [BRO-020, 9-chloro-2-(furan-2-yl)-N,N-dimethyl-[1,2,4]triazolo[1,5-c]quinazolin-5-amine], the inhibition at 10 µM in data set [6] (setting [16]) is 18.4%; in [7] (CHO-K1, read-out: % Inhibition Average at maximal concentration) it was 8.55%. For the same compound, the IC50 in data set [8] came out at 72.4 nM. In addition, the inhibition in data set [8] stood at 81.1%; in data set [9], 9.09%. Moreover, the “Hill Coefficient” value in [8] turned out to be 0.83.

For `COc1cccc2c1C(=O)c1c(O)c3c(c(O)c1C2=O)C[C@@](O)(C(=O)CO)C[C@@H]3O[C@H]1C[C@H](N)[C@H](O)[C@H](C)O1` [doxorubicin], in data set [10], the CYP1A1 expression result is recorded as “no detectable induction of CYP1A1 expression”; the FOXA1 levels result is reported as “decline in FOXA1 levels”; the “DNA double stranded breaks (pH2A.X) and PARP cleavage” value was “induced DNA double stranded breaks”.

Turning to `Cc1cc(-c2nc3cc(F)ccc3s2)ccc1NC(=O)[C@@H](N)CCCCN.Cl.Cl` [Phortress], the “cell killing profile in PRISM” value in [3] is recorded as “more broadly cytotoxic”. For the same compound, in data set [10], the CYP1A1 expression result is recorded as “induced CYP1A1 expression”; the FOXA1 levels entry was “maintenance of FOXA1 levels”; the “DNA double stranded breaks (pH2A.X) and PARP cleavage” value is on record as “induced DNA double stranded breaks”. Moreover, the “rescue of killing by AHR knockout” value in data set [11] (10 μM) was “AHR knockout did not rescue cells from Phortress killing”. Moreover, the “cytotoxicity at high doses” value in [11] (AHR knockout cells) is reported as “non-specific cytotoxicity at high doses”.

As to `O=C(Cc1ccccc1)Nc1nc2ccc(Cl)cc2c2nc(-c3ccco3)nn12` [MRS-1220, reference compound], the “CYP1A1-dependence” value in data set [1] is “CYP1A1-dependent cytotoxic”. In data set [2], the “cytotoxicity to breast cancer cell lines” value is “cytotoxic”. In data set [3], the “cell killing profile in PRISM” value is “cell killing profile specific for such FOXA1-dependent cancer cell lines”. In data set [4], the “AHR-dependence of the cytotoxic response” value was “dependence upon AHR”.
